The assay has as its target Tryptophan--tRNA ligase (Mycobacterium tuberculosis (strain ATCC 25618 / H37Rv), UniProt P9WFT3). Nature of the assay: Biochemical assay for Mt-TrpRS. The assay is classed as functional.

Chain of Tryptophan--tRNA ligase (P9WFT3 whole entry): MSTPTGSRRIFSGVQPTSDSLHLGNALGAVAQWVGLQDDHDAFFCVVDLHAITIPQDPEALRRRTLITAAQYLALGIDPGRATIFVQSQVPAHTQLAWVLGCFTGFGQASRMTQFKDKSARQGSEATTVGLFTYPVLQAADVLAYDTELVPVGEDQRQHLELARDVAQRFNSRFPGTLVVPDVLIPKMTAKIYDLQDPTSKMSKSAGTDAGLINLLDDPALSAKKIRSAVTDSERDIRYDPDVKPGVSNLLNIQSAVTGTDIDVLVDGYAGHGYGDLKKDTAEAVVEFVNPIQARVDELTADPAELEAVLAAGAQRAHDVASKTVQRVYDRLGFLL

The IC50 is the concentration needed to halve the response being measured. Low values mean greater potency in that assay, high ones weaker potency in that assay. Regarding `Cn1c(=O)c2cc(C(=O)NCCc3ccccc3)ccc2n(C)c1=O`, the IC50 was above 195 µM. Compound `CN(Cc1ccc(F)cc1)CC1(O)CCN(C(=O)c2ccsc2)C1` (centres undefined) had an IC50 above 195 µM.

On to `NC(=O)C1(CCCc2ccncc2)CCCN1` (centres undefined), for which the half-inhibitory concentration (IC50) was above 195 µM. Take `O=C(O)C1(Cc2cccc(-c3ccc(F)cc3)c2)CCOCC1`: the half-inhibitory concentration (IC50) is above 195 µM. As to `O=C(c1cncs1)N1CCC(c2cnccn2)CC1`, the half-maximal inhibitory concentration (IC50) was above 195 µM. `CC(=O)NC(=O)C1(CCCc2ccncc2)CCN1` (centres undefined) gave a half-maximal inhibitory concentration (IC50) above 195 µM.

With `CC(=O)N1CCN(CC(N)=O)CC(COc2ccccc2)C1` (centres undefined), the IC50 is above 195 µM. The compound `CN(C)CCn1c([C@H]2CCCO2)cc2cccnc21` gave a concentration for half-maximal inhibition (IC50) above 195 µM. Compound `O=C(NCCN1CCOCC1)Nc1cnc2cc(Cl)ccc2c1O` showed an IC50 above 195 µM. In turn, `COCCC(=O)N1CCCC(c2nc(O)cc(-c3ccncc3)n2)C1` (centres undefined) gave an IC50 above 195 µM. On to `O=C(C1CCCC1)N1CCCC(c2nc(O)cc(-c3ccncc3)n2)C1` (centres undefined), for which the IC50 is above 195 µM. As for `CNC(=O)Nc1cnc2cc(Cl)ccc2c1O`, the IC50 is above 195 µM. `O=C(O)C1(Cc2cc(-c3ccc(F)cc3)no2)CCOCC1` showed an IC50 above 195 µM.

Compound `O=C(O)C1(Cc2cc(-c3ccccc3F)no2)CCOCC1` showed a concentration for half-maximal inhibition (IC50) above 195 µM. The compound `CN1CCC(Cc2cncc(-c3ccccc3C(=O)O)n2)C1` (centres undefined) had a concentration for half-maximal inhibition (IC50) above 195 µM. As for `COCCN1C(=O)CO[C@H]2CN(Cc3ccccc3Cl)C[C@@H]21`, the IC50 is above 195 µM. On to `CCn1cc(S(=O)(=O)NC(=O)CCc2c[nH]c3ccccc23)cn1`, for which the half-maximal inhibitory concentration (IC50) is above 195 µM.

`CC1CN(Cc2ccccc2)CCCN1CCNS(C)(=O)=O` (centres undefined) gave a concentration for half-maximal inhibition (IC50) above 195 µM. The compound `Cc1cnn(CCCNC2Cc3ccccc3C2)c1` had an IC50 above 195 µM. As for `COC(=O)CCCNC(=O)Nc1ccccc1OC`, the IC50 is above 195 µM. In turn, `Cc1cc(CS(=O)(=O)CC(=O)N2c3ccccc3CC2C)no1` (centres undefined) had an IC50 above 195 µM.

In turn, `CN(C)C(CNCc1nc(-c2ccsc2)no1)c1cccs1` (centres undefined) had an IC50 above 195 µM. The compound `CN(C)C(CNCc1nc(-c2ccsc2)no1)c1ccsc1` (centres undefined) gave an IC50 above 195 µM.

Consider `COc1ccccc1NC(=O)NCCCC(=O)Nc1cn[nH]c1`, for which the half-inhibitory concentration (IC50) is above 195 µM. In turn, `COc1cc(NC2CCCNC2)cc(OC)c1` (centres undefined) had a half-maximal inhibitory concentration (IC50) above 195 µM.

`CS(=O)(=O)c1nccn1Cc1ccc(F)cc1Cl` gave an IC50 above 195 µM. For `CC1CCN(CC(O)CNc2ccccn2)CC1` (centres undefined), the half-maximal inhibitory concentration (IC50) is above 195 µM. `OC(CNc1ccc(Cl)cn1)CN1CCOCC1` (centres undefined): the half-maximal inhibitory concentration (IC50) was above 195 µM. The compound `COc1ccccc1NC(=O)NCc1cn[nH]c1` had a concentration for half-maximal inhibition (IC50) above 195 µM. The figure for `CS(=O)(=O)c1nccn1CCOc1ccccc1F` is above 195 µM. For the compound `COc1cccc(C2=CCN(CCN3CCOC3=O)CC2)c1`, the half-inhibitory concentration (IC50) was above 195 µM. The figure for `CC1CN(Cc2ccccc2)CCCN1CCS(C)(=O)=O` (centres undefined) is above 195 µM; for `COCCN1CC=C(c2cccc(OC)c2)CC1` it is above 195 µM. In turn, `CSCC(C)(O)CNc1ncccc1I` (centres undefined) had an IC50 above 195 µM. On to `COc1ccc2c(c1)CC(NCCCn1cc(C)cn1)CC2` (centres undefined), for which the IC50 was above 195 µM. In the case of `Cc1cc(C)c(CNC(=O)NCc2nnc3n2CCC3)c(=O)[nH]1` it was above 195 µM. For the compound `COc1c(C(=O)N2CCC(CSc3ccccc3)C2)c(C)nn1C` (centres undefined), the IC50 was above 195 µM. `C[S+]([O-])CCNC(=O)Nc1cc(F)ccc1-n1cccn1` (centres undefined) had a half-inhibitory concentration (IC50) above 195 µM.

The compound `Cc1nn(C)cc1C(=O)N1CCC(CSc2ccccc2)C1` (centres undefined) had an IC50 above 195 µM.

For the compound `NC(=O)N1CCc2ncc(CNC(=O)CC3CC3)n2CC1`, the half-inhibitory concentration (IC50) is above 195 µM. In the case of `COCCN1CCc2ncnc(NC3CC3)c2CC1` it was above 195 µM.

In turn, `Cc1nc(Cn2c3c(ccc2=O)CC(NC(N)=O)CC3)cs1` (centres undefined) had a half-inhibitory concentration (IC50) above 195 µM. `CNc1cc(-c2ccncc2)ncn1`: the IC50 was above 195 µM. In the case of `Cc1ccnc(N2CCC(C(N)=O)CC2)n1` it was above 195 µM. The compound `Cc1ccc2c(c1)[C@@H](CC(=O)N(C)C)CCO2` had an IC50 above 195 µM. With `COCCN1CC(=O)c2sc(NC(C)C)nc2C1`, the half-maximal inhibitory concentration (IC50) is above 195 µM.

The compound `CN1CC(=O)c2sc(NCCc3ccccc3)nc2C1` gave an IC50 above 195 µM. The figure for `O=c1[nH]c(-c2ccncc2)ncc1-c1ccnc(NC2CC2)n1` is above 195 µM; for `O=C1CN(CC2CC2)Cc2nc(NCc3ccccc3)sc21` it is above 195 µM.

The compound `O=C1CN(CC2CC2)Cc2nc(NCCc3ccccn3)sc21` gave an IC50 above 195 µM.

`CNc1nc2c(s1)C(=O)CN(C(=O)NCCc1ccccc1)C2`: the half-inhibitory concentration (IC50) is above 195 µM. `COCC(=O)N1CC(=O)c2sc(Nc3ccc(F)cc3F)nc2C1`: the 50% inhibitory concentration (IC50) is above 195 µM. On to `OCCN1CCN(Cc2cnc3c(-c4ccccc4)cnn3c2)CC1`, for which the IC50 is above 195 µM. Consider `O=C(CN1CCOC1=O)N1CC[C@@H](c2ccc3ccccc3c2)[C@H](O)C1`, for which the concentration for half-maximal inhibition (IC50) is above 195 µM. For the compound `CNC(=O)c1nc(CN2CCOC(C(F)(F)F)C2)no1` (centres undefined), the IC50 is above 195 µM. `CN(C)C(=O)N1CC[C@@H](c2ccc3ccccc3c2)[C@H](O)C1` had a 50% inhibitory concentration (IC50) above 195 µM.

Compound `Cc1nn(CC(=O)NCc2cc3n(n2)CCCN(CC(C)C)C3)cc1Cl` gave an IC50 above 195 µM. In turn, `Nc1cnc(-c2ccc(F)cc2Cl)cn1` gave a concentration for half-maximal inhibition (IC50) above 195 µM. The compound `O=C(NCC1=CCCCC1)C(c1cccnc1)N1CCCC1` (centres undefined) showed a 50% inhibitory concentration (IC50) above 195 µM. Compound `COc1cc(N(C)CCC(O)c2ccccc2)ncn1` (centres undefined) showed a half-maximal inhibitory concentration (IC50) above 195 µM. The figure for `CC(C)N1CCCC2(CCN(Cc3noc(C4CCCC4)n3)C2)C1=O` (centres undefined) is above 195 µM; for `CN1C(=O)CC(C(=O)O)C12CCN(Cc1ccc(Cl)c(F)c1)CC2` (centres undefined) it is above 195 µM. Turning to `COc1ccc([C@@H]2CN(C(=O)CCn3cccn3)C[C@H]2NC(C)=O)cc1`, the IC50 was above 195 µM. For the compound `Cc1ccc(F)cc1-c1ccc(N)nc1`, the IC50 is above 195 µM. Take `CSc1ccccc1C(=O)NCc1cc2n(n1)CCCN(CC(C)C)C2`: the IC50 was above 195 µM. The figure for `NC(=O)C1CCN(C(C(=O)O)c2ccc(Cl)c(C(F)(F)F)c2)CC1` (centres undefined) is above 195 µM; for `CSc1ncc(C(=O)NCc2cc3n(n2)CCCN(CC(C)C)C3)cn1` it is above 195 µM. For `Cc1nc(N(C)CCN(C)C)c2cnn(C)c2n1`, the IC50 is above 195 µM. Consider `Nc1nc2c(c(NC3CCCC3)n1)CCN(C(=O)C1CCOC1)CC2` (centres undefined), for which the IC50 was above 195 µM. The compound `Cc1cc(C)n(NC(=O)c2ccccc2F)c(=O)c1` showed an IC50 above 195 µM. In the case of `CCC(NC(=O)c1nn(C)cc1C(=O)O)c1ccc(C)cc1C` (centres undefined) it was above 195 µM.

As for `CCSc1ncc(Cl)c(C(=O)NC(CCSC)C(=O)O)n1` (centres undefined), the half-maximal inhibitory concentration (IC50) was above 195 µM. In the case of `CSCCC(NC(=O)c1nc(SC)ncc1Cl)C(=O)O` (centres undefined) it was above 195 µM. Turning to `CSc1ncc(Cl)c(C(=O)NC(Cc2ccccc2)C(=O)O)n1` (centres undefined), the 50% inhibitory concentration (IC50) was above 195 µM. As to `COc1ccc(-c2cc(N)on2)cc1`, the IC50 was above 195 µM. The compound `CCn1cc(N)c(-c2nnc3n2CCC3)n1` showed a half-inhibitory concentration (IC50) above 195 µM. In turn, `CCn1cc(N)c(-c2nnc3n2CCCC3)n1` gave an IC50 above 195 µM. `Cn1ncc(NC(=O)c2noc3c2CCCC3)c1C(N)=O` had a 50% inhibitory concentration (IC50) above 195 µM. `CCN(CC)C1COc2ccc(Br)cc2C1=O` (centres undefined): the half-maximal inhibitory concentration (IC50) is above 195 µM.

`Cc1c(Br)cc2c(c1C)OCC(N(C)C)C2=O` (centres undefined) showed an IC50 above 195 µM. For the compound `O=C1NC(=O)c2c3c(nc(O)c21)CCCC3`, the IC50 was above 195 µM. In the case of `O=C1CCC(=O)N1c1nn(Cc2c(F)cccc2Cl)cc1Cl`, the 50% inhibitory concentration (IC50) is above 195 µM.

`O=C1CCC(=O)N1c1nn(Cc2ccc(F)cc2)cc1Cl` showed a half-maximal inhibitory concentration (IC50) above 195 µM. `CNCc1cc(F)ccc1Oc1ccc(F)cc1` had an IC50 above 195 µM.

Compound `Cc1cn(Cc2ccc(F)c(F)c2)nc1N` gave an IC50 above 195 µM.

Regarding `CC(C)c1cc(CN2CCC(N)CC2)on1`, the half-maximal inhibitory concentration (IC50) is above 195 µM. As to `Cc1cn(Cc2ccccc2)nc1N`, the half-inhibitory concentration (IC50) is above 195 µM. The compound `Cc1ccc(Cn2cc(C)c(N)n2)cc1` gave an IC50 above 195 µM.

Turning to `Cc1cccc(Cn2cc(C)c(N)n2)c1`, the IC50 is above 195 µM. Compound `O=C1CCC(=O)N1c1nn(Cc2ccccc2)cc1Cl` gave an IC50 above 195 µM. Consider `O=C1CCC(=O)N1c1nn(Cc2cccc(F)c2)cc1Cl`, for which the half-maximal inhibitory concentration (IC50) is above 195 µM. In turn, `CC(=O)c1ccc(OCC(C)O)cc1O` (centres undefined) showed an IC50 above 195 µM. In turn, `CCOC(=O)COc1ccc(C(C)=O)c(O)c1` gave a half-inhibitory concentration (IC50) above 195 µM.

Compound `Cn1c(=O)c2cc(C(=O)NCCOCC(F)(F)F)ccc2n(C)c1=O` showed an IC50 above 195 µM. Turning to `O=C(O)CCc1nc2nccc(-c3ccc(F)cc3)n2n1`, the IC50 is above 195 µM. As to `O=C(O)Cc1nc2nccc(-c3ccc(F)cc3)n2n1`, the IC50 is above 195 µM. Regarding `Cn1cc(-c2cc(C(F)(F)F)n(CCCN)n2)cn1`, the IC50 was above 195 µM. Regarding `COc1cc(CNc2cnn(CC(F)F)c2)ccc1O`, the 50% inhibitory concentration (IC50) is above 195 µM. The figure for `CC(CC#N)n1ccc(C(F)(F)F)n1` (centres undefined) is above 195 µM; for `CCC(CC#N)n1ccc(C(F)(F)F)n1` (centres undefined) it is above 195 µM. Compound `COc1cccc(CNc2cnn(CC(F)F)c2)c1` showed a concentration for half-maximal inhibition (IC50) above 195 µM. With `COc1ccc(CNc2cnn(CC(F)F)c2)cc1`, the IC50 was above 195 µM.

In turn, `COC(=O)c1ccc(CNCc2ccn(C)n2)cc1` gave an IC50 above 195 µM. Consider `Cc1cc(C(F)(F)F)nn1CCCNC(=O)C1CCCO1` (centres undefined), for which the IC50 is above 195 µM. With `Cc1nc(C)c(C(=O)NCCNC(=O)Cc2ccc(F)cc2)s1`, the IC50 is above 195 µM.

The compound `Cc1ccc(C(=O)NS(=O)(=O)c2cc(Br)ccc2C)c(=O)[nH]1` showed an IC50 above 195 µM. `COCCC(=O)NCCn1nc(C2CCNC2)c2cccnc21` (centres undefined): the half-maximal inhibitory concentration (IC50) is above 195 µM. In the case of `CNC(=O)C1(CCCc2ccncc2)CCN1` (centres undefined), the IC50 is above 195 µM. For the compound `O=C1CC[C@H]2[C@H](CCN2c2ncccn2)N1c1ccccc1`, the IC50 is above 195 µM. `CCc1ncnc2c1CCN(CCOC)CC2` showed an IC50 above 195 µM. The compound `CN(C)C(=O)CO[C@H]1CN(Cc2ccsc2)[C@@H]2COC[C@H]12` had an IC50 above 195 µM. `CCc1ccc(CN2C[C@H](OC)[C@H]3COC[C@H]32)o1` gave a 50% inhibitory concentration (IC50) above 195 µM. With `Fc1cccc(CN2C[C@@H]3CN(c4ncccn4)C[C@@H]3C2)c1`, the IC50 is above 195 µM.

As for `c1ccc(OCC2C[C@@H]3[C@@H](C2)OCCN3Cc2ccoc2)nc1` (some centres undefined), the IC50 is above 195 µM.

Source of the values: ChEMBL document CHEMBL3988442, “University of Dundee, Small-Polar-MMV Screening Library” (2021).
